Converted amounts (≈) assume the structure as drawn. Where a name gives a salt, the structure may show the parent alone.

This note sets out measurements from US5852011A, “Benzimidazole derivatives” (Mitsui Chemicals, Inc., priority 1994, dated 1998).

The subject of experiment [1] is A(adenine)-T(thymine) DNA copolymer. As to the kind of experiment: Change in Tm (melting temperature) of DNA copolymer on addition of compound (Test 1). The class given is binding. The following applies: for ΔTm: difference between Tm with and without compound, citrated buffer. Here is the method:
To investigate bonding of these compounds with DNA, changes in Tm (melting temperature) were measured. With respect of each of these compounds, the measurement was conducted by determining the difference between Tm measured when a citrated buffer solution of an A(adenine)-T(thymine) DNA copolymer was added with the compound and that measured when the compound was not added. For the measurement, a spectrophotometer ("HITACHI U-3200 MODEL") was used and for temperature control, "HITACHI SPR-10 MODEL" was used.

The test system of experiment [2] is Colon 26 mouse colon cancer cells. As to the kind of experiment: In vivo antitumor activity, Colon 26 subcutaneously transplanted to female CDF1 mice (Test 4). The conditions noted are these: caudal vein, tumor weight on day 15. Here is the method:
Prepared was a 1×10^7 cells/ml suspension of Colon 26 mouse colon cancer cells in HBSS (Hanks' Balanced Salt Solution). A 0.1 ml portion of the cell suspension was subcutaneously transplanted to a lateroabdominal part of each female CDF1 mouse. After the body weight of the mouse was measured on the following day of the transplantation of the tumor, a solution of a compound (5% glucose solution containing 5% of "Tween 80") was administered into the caudal vein of the mouse. On day 15, a tumor was excised and its weight was measured.
The percentage of the average tumor weight of each experiment group as calculated by supposing that the average tumor weight of the control group not administered with any drug was 100% was calculated as a T/C value.
Corresponding to each compound number, its T/C value is shown. The number in parentheses indicates the concentration of the drug when the T/C value was indicated.

In experiment [3] the test system is mouse B16 melanoma cells. Description: In vitro inhibition of proliferation of tumored cells, mouse B16 melanoma (Test 2). The class given is cell-based. The following applies: 3 days in 5% CO2 at 37° C., 96-well plate; for IC50: Mus musculus, B16, 72 h, read-out: 50% Inhibition. Here is the method:
A description will next be made of antitumor activities of these compounds. Their antitumor activities were determined by measuring their in vitro inhibition of proliferation of tumored cells. Namely, mouse B16 melanoma cells were spread over a 96-well culture plate. One day later, each drug was applied. The melanoma cells were then incubated for 3 days in 5% CO2 at 37° C. Following the method reported in Cancer Res., 48, 589-601(1988), the concentration of the drug required to induce 50% inhibition on the proliferation was determined. As a comparative example, the results obtained from the application of distamycin are also shown.

The test system of experiment [4] is P388 leukemia cells. As to the kind of experiment: In vivo antitumor activity, P388 leukemia intraperitoneally transplanted to female CDF1 mice (Test 3). The conditions noted are these: intraperitoneal, one, five and nine days after transplantation. Set-up: species or system mouse; ILS: unit not given here. Here is the method: In vivo antitumor activities of these compounds were also studied. P388 leukemia cells (10^6 cells/mouse) were intraperitoneally transplanted to female CDF1 mice. One, five and nine days later, each compound was intraperitoneally administered (at 1, 3 or 10 mg/kg) to the mice. As a blank test, 5% glucose was intraperitoneally administered at 10 ml/kg to mice. Based on the group of the mice in the blank test as a control group, the effects of the individual drugs are shown in terms of ILS. The term "ILS" is represented by the following formula: [formula]
When test animals survived 8 weeks after the administration, the number of those survived was recorded without calculation of ILS.

As to `Cn1cc(C=O)cc1-c1nc2cc(C(=O)NCCC(=N)N)ccc2[nH]1`, the “binding to DNA indicated by Tm (in words)” value in experiment [1] (melting temperature of double-stranded DNA) is listed as “increased Tm value”.
In general, T/C refers to the result in the treated group divided by that in the control group, in per cent. `COc1cccc2c1C(=O)c1c(O)c3c(c(O)c1C2=O)C[C@@](O)(C(=O)CO)C[C@@H]3O[C@H]1C[C@H](N)[C@H](O)[C@H](C)O1` [Adriamycin, adriamycin, reference compound] yielded a T/C in experiment [2] (20 mg/Kg) of 40%.
In the case of `Cn1cc(NC(=O)c2ccc(N(CCCl)CCCl)cc2)cc1-c1nc2cc(C(=O)NCCC(=N)N)ccc2[nH]1` [Compound 1, 1H-2-[4-[4-[N,N-bis(2-chloroethyl)amino]benzoylamino]-1-methylpyrrol-2-yl]benzimidazole-5-[N-(2-amidinoethyl)]carboxamide hydrochloride], the “50% Inhibition” value in experiment [3] worked out at 0.23 µg/mL. In addition, in experiment [4] (1 mg/kg), the ILS turned out to be 38. The T/C in experiment [2] (2 mg/Kg) came out at 29%.
Usually ΔTm stands for the shift of the melting midpoint relative to a reference. For `Cn1cc(NC(=O)CCCc2ccc(N(CCCl)CCCl)cc2)cc1-c1nc2cc(C(=O)NCCC(=N)N)ccc2[nH]1` [Compound 4, 1H-2-[4-[4-[4-[N,N-bis(2-chloroethyl)amino]phenyl]butylylamino]-1-methylpyrrol-2-yl]benzimidazole-5-[N-(2-amidinoethyl)]carboxamide hydrochloride], in experiment [1], the ΔTm was 17 °C. Moreover, the “50% Inhibition” value in experiment [3] amounted to 0.04 µg/mL.
For `Cn1cc(NC(=O)c2ccccc2N(CCCl)CCCl)cc1-c1nc2cc(C(=O)NCCC(=N)N)ccc2[nH]1` [Compound 305, 1H-2-[4-[2-[N,N-Bis(2-chloroethyl)amino]benzoylamino]-1-methylpyrrol-2-yl)benzimidazole-5-[N-(2-amidinoethyl)]carboxamide hydrochloride], in experiment [3], the “50% Inhibition” value came out at 4.2 µg/mL. The molecule also showed an ILS in experiment [4] (10 mg/kg) of 22.
`Cn1cc(NC(=O)c2cc(N(CCCl)CCCl)cc(N(CCCl)CCCl)c2)cc1-c1nc2cc(C(=O)NCCC(=N)N)ccc2[nH]1` [Compound 310, 1H-2-[4-[3,5-Bis[N,N-bis(2-chloroethyl)amino]benzoylamino]-1-methylpyrrol-2-yl]benzimidazole-5-[N-(2-amidinoethyl)]carboxamide hydrochloride]: the “50% Inhibition” value in experiment [3] came to 0.76 µg/mL. This molecule had an ILS in experiment [4] (1 mg/kg) of 88.
On to `Cn1cc(NC=O)cc1-c1nc2cc(C(=O)NCCC(=N)N)ccc2[nH]1` [Compound 318, 1H-2-(4-Formylamino-1-methylpyrrol-2-yl)benzimidazole-5-[N-(2-amidinoethyl)]carboxamide hydrochloride], for which, in experiment [1], the ΔTm amounted to 7 °C. Further, in experiment [3], the IC50 was found to be 19.8 µg/mL.
Take `Cn1cc(NC(=O)CNC(=N)N)cc1-c1nc2cc(C(=O)Nc3ccc(N(CCCl)CCCl)cc3)ccc2[nH]1` [Compound 1001, 1H-2-[1-Methyl-4-(2-guanidinoacetylamino)pyrrol-2-yl]benzimidazole-5-[N-[4-[N,N-bis(2-chloroethyl)amino]phenyl]]carboxamide hydrochloride]: in experiment [3], the “50% Inhibition” value stood at 0.53 µg/mL. This molecule registered an ILS in experiment [4] (10 mg/kg) of 115. The same molecule had a T/C in experiment [2] (6 mg/Kg) of 7%.
On to `Cn1cc(NC(=O)CNC(=N)N)cc1-c1nc2cc(C(=O)NCCc3ccc(N(CCCl)CCCl)cc3)ccc2[nH]1` [Compound 1003, 1H-2-[4-(2-Guanidinoacetylamino)-1-methylpyrrol-2-yl]benzimidazole-5-[N-[2-[4-[N,N-bis(2-chloroethyl)amino]phenyl]ethyl]]carboxamide hydrochloride], for which the “50% Inhibition” value in experiment [3] was determined as 0.018 µg/mL. In experiment [2] (0.3 mg/Kg), this molecule returned a T/C of 41%.
In the case of `Cc1cc(NC(=O)c2ccc3[nH]c(-c4cc(NC(=O)CNC(=N)N)cn4C)nc3c2)ccc1N(CCCl)CCCl` [Compound 1005, 1H-2-[1-Methyl-4-(2-guanidinoacetylamino)pyrrol-2-yl]benzimidazole-5-[N-[3-methyl-4-[N,N-bis(2-chloroethyl)amino]phenyl]]carboxamide dihydrochloride], the “50% Inhibition” value in experiment [3] is 0.65 µg/mL. This molecule also yielded a T/C in experiment [2] (15 mg/Kg) of 20%.
Turning to `COc1cc(NC(=O)c2ccc3[nH]c(-c4cc(NC(=O)CNC(=N)N)cn4C)nc3c2)ccc1N(CCCl)CCCl` [Compound 1009, 1H-2-[1-Methyl-4-(guanidinoacetylamino)pyrrol-2-yl]benzimidazole-5-[N-[3-methoxy-4-[N,N-bis(2-chloroethyl)amino]phenyl]]carboxamide dihydrochloride], the “50% Inhibition” value in experiment [3] came to 2.31 µg/mL. Besides, in experiment [2] (10 mg/Kg), the T/C was 29%.
As to `Cn1cc(NC(=O)CNC(=N)N)cc1-c1nc2cc(C(=O)Nc3ccc(N(CCCl)CCCl)c(C#N)c3)ccc2[nH]1` [Compound 1013, 1H-2-[1-Methyl-4-(guanidinoacetylamino)pyrrol-2-yl]benzimidazole-5-[N-[3-cyano-4-[N,N-bis(2-chloroethyl)amino]phenyl]]carboxamide dihydrochloride], the “50% Inhibition” value in experiment [3] worked out at 0.34 µg/mL. In addition, the T/C in experiment [2] (3 mg/Kg) amounted to 58%.
In the same order, the values of `Cn1cc(NC(=O)CNC(=N)N)cc1-c1nc2cc(C(=O)Nc3ccc(N(CCCl)CCCl)c(Cl)c3)ccc2[nH]1` [Compound 1017, 1H-2-[1-Methyl-4-(guanidinoacetylamino)pyrrol-2-yl]benzimidazole-5-[N-[3-chloro-4-[N,N-bis(2-chloroethyl)amino]phenyl]]carboxamide dihydrochloride] are 0.78 µg/mL and 30%.
`Cc1cc(N(CCCl)CCCl)ccc1NC(=O)c1ccc2[nH]c(-c3cc(NC(=O)CNC(=N)N)cn3C)nc2c1` [Compound 1024, 1H-2-[1-Methyl-4-(guanidinoacetylamino)pyrrol-2-yl]benzimidazole-5-[N-[2-methyl-4-[N,N-bis(2-chloroethyl)amino]phenyl]]carboxamide dihydrochloride]: the “50% Inhibition” value in experiment [3] came out at 0.586 µg/mL. The molecule further came in with a T/C in experiment [2] (10 mg/Kg) of 61%.
In the case of `CN(C)CCCC(=O)Nc1cc(-c2nc3cc(C(=O)Nc4ccc(N(CCCl)CCCl)cc4)ccc3[nH]2)n(C)c1` [Compound 1256, 1H-2-[1-Methyl-4-[4-(N,N-dimethylamino)butyrylamino]pyrrol-2-yl]benzimidazole-5-[N-[4-[N,N-bis-(2-chloroethyl)amino]phenyl]]carboxamide hydrochloride], the “50% Inhibition” value in experiment [3] worked out at 4.67 µg/mL. Besides, the T/C in experiment [2] (15 mg/Kg) is reported as 60%.
In the case of `Cn1cc(NC(=O)c2ccc(N(CCCl)CCCl)cc2)cc1-c1nc2cc(C(=O)Nc3ccc(N(CCCl)CCCl)cc3)ccc2[nH]1` [Compound 2001, 1H-2-[4-[4-[N,N-Bis(2-chloroethyl)amino]benzoylamino]-1-methylpyrrol-2-yl]benzimidazole-5-[N-[4-[N,N-bis(2-chloroethyl)amino]phenyl]]carboxamide], the “50% Inhibition” value in experiment [3] amounted to 0.005 µg/mL. For the same molecule, the ILS in experiment [4] (10 mg/kg) was determined as 47.
In the case of `Cn1cc(NC(=O)c2cc(NC(=O)c3cc(NC=O)cn3C)cn2C)cc1C(=O)NCCC(=N)N` [Distamycin, distamycin, reference compound], in experiment [1], the ΔTm came out at 10 °C. For the same molecule, the IC50 in experiment [3] was 36 µg/mL (≈ 74.8 µM).
